Measurements reported in US20240270821A1, “GIP/GLP1/GCG TRI-RECEPTOR AGONISTS AND USES THEREOF” (priority 2023, published 2024).
Like-named read-outs stand apart in the source and are kept apart here. Starred links: 1 amine or outer side, 2 acyl side, 3 side chain; linkers in the order of their positions; H or OH if unused. Non-standard residues stand in square brackets, D forms with d. Residues, ends and D or L forms follow the SMILES beside them. Groups on a side chain read outwards from the residue. No end group written: not given here. *: point of attachment. C20 diacid = O=C(O)CCCCCCCCCCCCCCCCCCC(=O)*; C18 diacid = O=C(O)CCCCCCCCCCCCCCCCC(=O)*; αMePhe(2-F) = C[C@](N)(Cc1ccccc1F)C(=O)O; γGlu = O=C(O)[C@H](CCC(=O)[*:2])N[*:1]; αMe4Pal = C[C@](N)(Cc1ccncc1)C(=O)O; αMeY = C[C@](N)(Cc1ccc(O)cc1)C(=O)O; 4Pal = N[C@@H](Cc1ccncc1)C(=O)O; αMeL = CC(C)C[C@](C)(N)C(=O)O; αMeS = C[C@](N)(CO)C(=O)O; Iva = CC[C@](C)(N)C(=O)O; Orn = NCCC[C@H](N)C(=O)O; AEEA = NCCOCCOCC(=O)O; Aib = CC(C)(N)C(=O)O

Tests used:
Format in all cases: cell-based
hGIPR [1] = target: T1, hGIPR (Homo sapiens, UniProt P48546); assay: Functional cAMP activity in the presence of 1% HSA; details: read-out: cAMP Rel EC50, hGIPR
T1 sequence (P48546 22-466): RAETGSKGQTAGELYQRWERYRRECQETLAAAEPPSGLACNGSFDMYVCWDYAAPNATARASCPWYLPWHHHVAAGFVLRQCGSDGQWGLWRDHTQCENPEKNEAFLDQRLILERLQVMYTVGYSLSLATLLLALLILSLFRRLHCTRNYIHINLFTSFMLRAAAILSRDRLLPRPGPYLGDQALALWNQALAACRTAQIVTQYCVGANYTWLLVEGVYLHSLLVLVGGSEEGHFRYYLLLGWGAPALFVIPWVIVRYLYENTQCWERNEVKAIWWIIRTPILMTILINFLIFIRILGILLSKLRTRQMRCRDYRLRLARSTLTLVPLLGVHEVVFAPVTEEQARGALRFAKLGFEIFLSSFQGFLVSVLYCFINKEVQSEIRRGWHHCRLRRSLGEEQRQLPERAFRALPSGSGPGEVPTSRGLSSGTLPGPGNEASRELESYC

hGLP-1R [2] = target: T2, hGLP-1R (Homo sapiens, UniProt P43220); assay: Functional cAMP activity in the presence of 1% HSA; details: read-out: cAMP Rel EC50, hGLP-1R
human GcgR = human GcgR (Homo sapiens, UniProt P47871); assay: Functional cAMP activity in the presence of 1% HSA; details: read-out: cAMP Rel EC50, hGcgR
hGIPR [3] = target: T1, hGIPR; assay: Functional cAMP activation in the presence of 0.1% casein (no HSA); details: read-out: Relative cAMP EC50, hGIPR;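 as to Relative cAMP EC50, hGIPR: intracellular cAMP rise after 30 min at 37 °C read by HTRF against a standard curve, scaled between buffer alone (0%) and top control ligand concentration (100%), four-parameter fit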;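 as to Relative cAMP EC50, hGLP-1R: intracellular cAMP rise after 30 min at 37 °C read by HTRF, normalized between buffer only (0%) and maximal control ligand (100%), four-parameter variable-slope fit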;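 as to Relative cAMP EC50, hGcgR: intracellular cAMP rise after 30 min at 37 °C, read by HTRF against a cAMP standard curve, scaled from buffer only (0%) to maximal control ligand response (100%)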
hGLP-1R [4] = target: T2, hGLP-1R; assay: as above; details: read-out: Relative cAMP EC50, hGLP-1R
hGcgR = hGcgR (Homo sapiens, UniProt P47871); assay: as above; details: read-out: Relative cAMP EC50, hGcgR;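 also: intracellular cAMP rise after 30 min at 37 °C, read by HTRF against a cAMP standard curve, scaled from buffer only (0%) to maximal control ligand response (100%)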
[5] = in the presence of 0.1% casein (no HSA), geometric mean

human GcgR, sequence (P47871 26-477): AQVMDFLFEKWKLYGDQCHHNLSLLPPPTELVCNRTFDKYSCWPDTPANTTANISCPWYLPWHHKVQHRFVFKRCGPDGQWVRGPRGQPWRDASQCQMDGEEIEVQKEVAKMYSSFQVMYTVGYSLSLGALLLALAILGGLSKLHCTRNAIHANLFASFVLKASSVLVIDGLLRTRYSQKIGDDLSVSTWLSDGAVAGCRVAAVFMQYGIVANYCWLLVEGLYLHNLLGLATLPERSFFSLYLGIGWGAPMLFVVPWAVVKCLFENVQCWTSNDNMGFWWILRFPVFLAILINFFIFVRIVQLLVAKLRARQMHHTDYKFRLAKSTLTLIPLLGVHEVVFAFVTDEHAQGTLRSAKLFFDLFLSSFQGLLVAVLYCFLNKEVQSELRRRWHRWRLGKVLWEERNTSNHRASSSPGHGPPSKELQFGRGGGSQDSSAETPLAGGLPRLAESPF
hGcgR, sequence (P47871 26-477): as above
T2 sequence (P43220 24-463): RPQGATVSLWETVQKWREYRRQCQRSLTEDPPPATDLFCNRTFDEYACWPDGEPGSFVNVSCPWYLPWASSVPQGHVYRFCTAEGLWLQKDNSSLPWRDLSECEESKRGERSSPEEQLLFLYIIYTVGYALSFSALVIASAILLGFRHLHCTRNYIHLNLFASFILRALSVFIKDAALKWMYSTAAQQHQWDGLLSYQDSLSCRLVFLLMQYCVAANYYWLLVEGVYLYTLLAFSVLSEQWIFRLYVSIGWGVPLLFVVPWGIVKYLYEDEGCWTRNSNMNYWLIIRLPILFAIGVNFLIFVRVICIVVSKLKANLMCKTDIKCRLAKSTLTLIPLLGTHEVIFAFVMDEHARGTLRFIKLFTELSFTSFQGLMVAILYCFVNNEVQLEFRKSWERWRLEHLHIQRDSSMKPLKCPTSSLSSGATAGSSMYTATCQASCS

Molecule | EC50 (hGIPR [1]) | EC50 (hGLP-1R [2]) | EC50 (human GcgR) | EC50 (hGIPR [3]) | EC50 (hGLP-1R [4]) | EC50 (hGcgR) | EC50 (hGIPR [3]; [5]) | EC50 (hGLP-1R [4]; [5]) | EC50 (hGcgR; [5])
H-Y[Aib]QGTFTSDFS[Orn][αMeL]LDKK([AEEA-γGlu-C18 diacid])AQ[Aib]AFIEYLLEGGPSSGAPPPEGT-NH2 [Example 160] | 44.4 nM | 482 nM | 479 nM |  |  |  | 0.354 nM | 5.39 nM | 4.32 nM
H-Y[Aib]QGTFTSD[4Pal]SQ[αMeL]LDKK([Glu-Glu-γGlu-C18 diacid])AQ[αMe4Pal]AFIEYLIAGGPSSGAPPPSGE-NH2 [Example 1087] | 23.3 nM | 439 nM | 2460 nM |  |  |  | 0.207 nM | 2.63 nM | 15.4 nM
Y[Aib]QGTFTSD[4Pal][αMeS]Q[αMeL]LD[Orn]K([dE-γGlu-C18 diacid])AQ[Iva]QFIQ[αMeY]LLE[Aib]GPSSGAPPPSGGGE-NH2 [Example 1139] | 2.87 nM | 155 nM | 269 nM |  |  |  | 0.0431 nM | 1.85 nM | 5.29 nM
H-Y[Aib]QGTFTSD[4Pal]S[Orn][αMeL]LD[Orn]K([γGlu-γGlu-C18 diacid])AQ[αMe4Pal]AFIEYLIE[Aib]GPSSGAPPPSGS-NH2 [Example 939] | 14.1 nM | 287 nM | 423 nM |  |  |  | 0.143 nM | 2.75 nM | 2.41 nM
H-Y[Aib]QGTFTSD[4Pal]SR[αMeL]LDKK([AEEA-γGlu-C18 diacid])AQ[Aib]AFIEYLIE[Aib]GPSSGAPPPSGS-NH2 [Example 802] | 16.9 nM | 153 nM | 2520 nM |  |  |  | 0.124 nM | 1.41 nM | 16.6 nM
H-Y[Aib]QGTFTSD[4Pal]SQ[αMeL]LDKK([γGlu-γGlu-C18 diacid])AQ[αMe4Pal]AFIEYLLAGGPSSGAPPPSGSEE-NH2 [Example 1036] | 13 nM | 1080 nM | 353 nM |  |  |  | 0.114 nM | 6.87 nM | 2.05 nM

Further lines, with some results ahead:

EC50 (hGIPR [1]) | EC50 (hGLP-1R [2]) | EC50 (human GcgR) | EC50 (hGIPR [3]) | EC50 (hGLP-1R [4]) | EC50 (hGcgR) | Molecule | EC50 (hGIPR [3]; [5]) | EC50 (hGLP-1R [4]; [5]) | EC50 (hGcgR; [5])
8.93 nM | 31.1 nM | 142 nM | 0.0624 nM | 0.636 nM | 1.89 nM | CC[C@H](C)[C@H](NC(=O)[C@H](Cc1ccccc1)NC(=O)[C@H](CCCN)NC(=O)C(C)(C)NC(=O)[C@H](CCC(N)=O)NC(=O)[C@H](C)NC(=O)[C@H](CCCCNC(=O)COCCOCCNC(=O)CC[C@H](NC(=O)CCCCCCCCCCCCCCCCC(=O)O)C(=O)O)NC(=O)[C@H](CCCN)NC(=O)[C@H](CC(=O)O)NC(=O)[C@H](CC(C)C)NC(=O)[C@](C)(CC(C)C)NC(=O)[C@@H](NC(=O)[C@](C)(CO)NC(=O)[C@H](Cc1ccncc1)NC(=O)[C@H](CC(=O)O)NC(=O)[C@H](CO)NC(=O)[C@@H](NC(=O)[C@](C)(Cc1ccccc1F)NC(=O)[C@@H](NC(=O)CNC(=O)[C@H](CCC(N)=O)NC(=O)C(C)(C)NC(=O)[C@@H](N)Cc1ccc(O)cc1)[C@@H](C)O)[C@@H](C)O)[C@@H](C)CC)C(=O)N[C@H](CCC(=O)O)C(=O)N[C@@H](Cc1ccc(O)cc1)C(=O)N[C@@H](CC(C)C)C(=O)N[C@@H](CC(C)C)C(=O)N[C@@H](CCC(=O)O)C(=O)NCC(=O)NCC(=O)N1CCC[C@H]1C(=O)N[C@@H](CO)C(=O)N[C@@H](CO)C(=O)NCC(=O)N[C@@H](CCC(=O)O)C(=O)N1CCC[C@H]1C(=O)N1CCC[C@H]1C(=O)N1CCC[C@H]1C(=O)N[C@@H](CCC(=O)O)C(N)=O [Example 460] (H-Y[Aib]QGT[αMePhe(2-F)]TSD[4Pal][αMeS]I[αMeL]LD[Orn]K([AEEA-γGlu-C18 diacid])AQ[Aib][Orn]FI[dE]YLLEGGPSSGEPPPE-NH2) |  |  | 
194 nM | 1130 nM | 1390 nM |  |  |  | H-Y[Aib]QGTFTSDFSK[αMeL]LDKK([AEEA-γGlu-C20 diacid])AQ[Aib]AFIEYLLEGGPSSGEPPPEEG-NH2 [Example 35] | 0.55 nM | 3.05 nM | 4.32 nM
19.2 nM | 257 nM | 359 nM |  |  |  | H-Y[Aib]QGTFTSD[4Pal]S[Orn][αMeL]LDKK([γGlu-γGlu-C18 diacid])AQ[αMe4Pal]AFIEYLIAGGPSSGEPPPSGE-NH2 [Example 979] | 0.181 nM | 2.72 nM | 3.34 nM
2.26 nM | 27.7 nM | 477 nM | 0.0286 nM | 0.639 nM | 5.36 nM | CC[C@H](C)[C@H](NC(=O)[C@H](Cc1ccccc1)NC(=O)[C@H](C)NC(=O)C(C)(C)NC(=O)[C@H](CCC(N)=O)NC(=O)[C@H](C)NC(=O)[C@H](CCCCNC(=O)COCCOCCNC(=O)CC[C@H](NC(=O)CCCCCCCCCCCCCCCCC(=O)O)C(=O)O)NC(=O)[C@H](CCCCN)NC(=O)[C@H](CC(=O)O)NC(=O)[C@H](CC(C)C)NC(=O)[C@](C)(CC(C)C)NC(=O)[C@@H](NC(=O)[C@H](CO)NC(=O)[C@H](Cc1ccncc1)NC(=O)[C@H](CC(=O)O)NC(=O)[C@H](CO)NC(=O)[C@@H](NC(=O)[C@](C)(Cc1ccccc1F)NC(=O)[C@@H](NC(=O)CNC(=O)[C@H](CCC(N)=O)NC(=O)C(C)(C)NC(=O)[C@@H](N)Cc1ccc(O)cc1)[C@@H](C)O)[C@@H](C)O)[C@@H](C)CC)C(=O)N[C@@H](CCC(=O)O)C(=O)N[C@@H](Cc1ccc(O)cc1)C(=O)N[C@@H](CC(C)C)C(=O)N[C@@H](CCC(=O)O)C(=O)N[C@@H](CCC(=O)O)C(=O)NCC(=O)NCC(=O)N1CCC[C@H]1C(=O)N[C@@H](CO)C(=O)N[C@@H](CO)C(=O)NCC(=O)N[C@@H](CCC(=O)O)C(=O)N1CCC[C@H]1C(=O)N1CCC[C@H]1C(=O)N1CCC[C@H]1C(=O)N[C@@H](CCC(=O)O)C(N)=O [Example 487] (H-Y[Aib]QGT[αMePhe(2-F)]TSD[4Pal]SI[αMeL]LDKK([AEEA-γGlu-C18 diacid])AQ[Aib]AFIEYLEEGGPSSGEPPPE-NH2) |  |  | 
15.7 nM | 887 nM | 2680 nM |  |  |  | H-Y[Aib]QGTFTSDFS[Orn][αMeL]LDKK([AEEA-AEEA-γGlu-C18 diacid])AQ[Aib]AFIEWLLEGGHSSGAPPPGGE-NH2 [Example 271] | 0.152 nM | 5 nM | 8.51 nM
1.09 nM | 24.1 nM | 287 nM | 0.0109 nM | 0.271 nM | 2.38 nM | H-Y[Aib]QGT[αMePhe(2-F)]TSD[4Pal]SI[αMeL]LD[Orn]K([AEEA-γGlu-C18 diacid])AQ[αMe4Pal][Orn]FI[dE][αMeY]LIEGGPSSGDPPPEGE-NH2 [Example 727] |  |  | 
1.05 nM | 30.6 nM | 199 nM | 0.0107 nM | 0.248 nM | 1.06 nM | CC[C@H](C)[C@H](NC(=O)[C@H](CC(C)C)NC(=O)[C@](C)(Cc1ccc(O)cc1)NC(=O)[C@@H](CCC(=O)O)NC(=O)[C@@H](NC(=O)[C@H](Cc1ccccc1)NC(=O)[C@H](CCC(=O)O)NC(=O)C(C)(C)NC(=O)[C@H](C)NC(=O)[C@H](C)NC(=O)[C@H](CCCCNC(=O)COCCOCCNC(=O)CC[C@H](NC(=O)CCCCCCCCCCCCCCCCC(=O)O)C(=O)O)NC(=O)[C@H](CCCN)NC(=O)[C@H](CC(=O)O)NC(=O)[C@H](CC(C)C)NC(=O)[C@](C)(CC(C)C)NC(=O)[C@@H](NC(=O)[C@](C)(CO)NC(=O)[C@H](Cc1ccncc1)NC(=O)[C@H](CC(=O)O)NC(=O)[C@H](CO)NC(=O)[C@@H](NC(=O)[C@](C)(Cc1ccccc1F)NC(=O)[C@@H](NC(=O)CNC(=O)[C@H](CCC(N)=O)NC(=O)C(C)(C)NC(=O)[C@@H](N)Cc1ccc(O)cc1)[C@@H](C)O)[C@@H](C)O)[C@@H](C)CC)[C@@H](C)CC)C(=O)N[C@@H](CCC(=O)O)C(=O)NCC(=O)NCC(=O)N1CCC[C@H]1C(=O)N[C@@H](CO)C(=O)N[C@@H](CO)C(=O)NCC(=O)N[C@@H](CCC(=O)O)C(=O)N1CCC[C@H]1C(=O)N1CCC[C@H]1C(=O)N1CCC[C@H]1C(=O)N[C@@H](CO)C(=O)NCC(=O)N[C@@H](CO)C(N)=O [Example 707] |  |  | 
